Columns and labels:
[1] = tested on: parental (DU145) prostate cancer cells; assay: Apoptosis by PARP-1 and Caspase-3 blot after 48 h treatment; type: cell-based; settings: 48 hours after treatment
Method: (§1) Cells were seeded in 6-well dishes at 50% confluence. Cells were treated with the compound OBD9 after 24 hours. 48 hours later, cells were lysed with lysis buffer and protein was collected and quantified with the BCA assay (Invitrogen). 20 micrograms of protein were loaded on 10% polyacrylamide gels. The gels were blotted onto nitrocellulose and stained with rabbit antibody to PARP-1 and Caspase-3 (both from Cell Signaling) and then visualized with goat, anti-rabbit HRP-conjugated antibody and HRP conjugated GAPDH.

[2] = tested on: high metastatic (DU145LN4) prostate cancer cells; assay: as above; type: cell-based; settings: 48 hours after treatment
Method: as §1

[3] = Viability assay: effect of selected compounds on viability; type: cell-based; settings: for viability at 1 µM: 1.0 μM compound; for viability at 10 µM: 10 μM compound
[4] = tested on: PC3M-prostate cancer cells; assay: Imaging of microtubule stability by tubulin staining and confocal microscopy; type: cell-based, human; settings: PC3M cells, 24, 48 and 72 hours
Method: Cells were seeded on glass coverslips. 24 hours later, cells were treated with compound OBD9. After the indicated times (24 hours, 48 hours, and 72 hours), cells were fixed with paraformaldehyde (4% in PBS), permeabilized Triton-X100 (0.02% in Phosphate buffered saline), then stained with mouse antibody to human tubulin (1:200 dilution) and then with 1:400 goat anti-mouse IgC (Invitrogen) and viewed via confocal microscopy at (63× objective).

[5] = tested on: tubulin; assay: Tubulin polymerization assay (Cytoskeleton Inc. kit, fluorescent reporter); type: biochemical; settings: fluorescence-based polymerization kinetics
Method: Tubulin polymerization was measured using the tubulin polymerization assay kit from Cytoskeleton Inc., which measures tubulin polymerization kinetic via fluorescent enhancement to the incorporation of a fluorescent reporter into microtubules as polymerization takes place.

Row | SMILES | apoptosis induction (PARP-1, Caspase-3) [1] | apoptosis induction (PARP-1, Caspase-3) [2] | viability at 1 µM [3] | viability at 10 µM [3] | effect on microtubule (tubulin) stability [4] | effect on tubulin polymerization [5]
1 | COC(=O)Nc1nc2cc(C(=O)c3ccc(N(C)C4COC4)cc3)ccc2[nH]1 [Compound 9] | induces apoptosis | induces apoptosis | 34.9% | 34.3% | interferes with microtubule (tubulin) stability | disrupts (inhibits) tubulin polymerization
2 | COC(=O)Nc1nc2cc(Oc3cccc(N4CCN(C)CC4)n3)ccc2[nH]1 [Compound 12] | – | – | 94.5% | 35.2% | – | –
3 | COC(=O)Nc1nc2cc(Oc3cccc(N4CCN(C)CC4)c3)ccc2[nH]1 [Compound 13] | – | – | 80.9% | 49.1% | – | –
4 | CCCSc1ccc2[nH]c(NC(=O)OCCN(C)C)nc2c1 [Compound 15] | – | – | 97.4% | 35.3% | – | –
5 | CCCSc1ccc2[nH]c(NC(=O)OCCCN(C)C)nc2c1 [Compound 16] | – | – | 90.1% | 90.3% | – | –
6 | CN(C)CCCOC(=O)Nc1nc2cc(C(=O)c3ccc(F)cc3)ccc2[nH]1 [Compound 17] | – | – | 93.9% | 84.8% | – | –
